The target of this experiment is recombinant GST fusion MALT1 (human MALT1) (Homo sapiens (Human), UniProt Q9UDY8). Put plainly: Evaluation of inhibition of protease activity of MALT1 (cleavage of fluorescent peptide substrate Ac-LRSR-AMC). Particulars: substrate Ac-LRSR-AMC 20 μmol/L, 30° C. for 80 minutes. In kind it is biochemical. Put shortly:
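GST-tagged full-length human MALT1 from E. coli ([…]) was preincubated with compound 30 min at room temperature. Buffer: MES, 150 mM NaCl, 10% sucrose, 0.1% CHAPS, 10 mM DTT, 1 mol/L ammonium citrate. Ac-LRSR-AMC (20 μM final) was then cleaved 80 min at 30 °C; AMC fluorescence (Ex 380/Em 460) gain gave % inhibition versus no-enzyme and DMSO controls.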

The text below walks through data of patent publication US10662156B2, “Guanidine derivative and medical use thereof” (Toray Industries, Inc., priority 2016, dated 2020).

Sequence of recombinant GST fusion MALT1 (human MALT1) (Q9UDY8 whole entry, the tested form may be a part): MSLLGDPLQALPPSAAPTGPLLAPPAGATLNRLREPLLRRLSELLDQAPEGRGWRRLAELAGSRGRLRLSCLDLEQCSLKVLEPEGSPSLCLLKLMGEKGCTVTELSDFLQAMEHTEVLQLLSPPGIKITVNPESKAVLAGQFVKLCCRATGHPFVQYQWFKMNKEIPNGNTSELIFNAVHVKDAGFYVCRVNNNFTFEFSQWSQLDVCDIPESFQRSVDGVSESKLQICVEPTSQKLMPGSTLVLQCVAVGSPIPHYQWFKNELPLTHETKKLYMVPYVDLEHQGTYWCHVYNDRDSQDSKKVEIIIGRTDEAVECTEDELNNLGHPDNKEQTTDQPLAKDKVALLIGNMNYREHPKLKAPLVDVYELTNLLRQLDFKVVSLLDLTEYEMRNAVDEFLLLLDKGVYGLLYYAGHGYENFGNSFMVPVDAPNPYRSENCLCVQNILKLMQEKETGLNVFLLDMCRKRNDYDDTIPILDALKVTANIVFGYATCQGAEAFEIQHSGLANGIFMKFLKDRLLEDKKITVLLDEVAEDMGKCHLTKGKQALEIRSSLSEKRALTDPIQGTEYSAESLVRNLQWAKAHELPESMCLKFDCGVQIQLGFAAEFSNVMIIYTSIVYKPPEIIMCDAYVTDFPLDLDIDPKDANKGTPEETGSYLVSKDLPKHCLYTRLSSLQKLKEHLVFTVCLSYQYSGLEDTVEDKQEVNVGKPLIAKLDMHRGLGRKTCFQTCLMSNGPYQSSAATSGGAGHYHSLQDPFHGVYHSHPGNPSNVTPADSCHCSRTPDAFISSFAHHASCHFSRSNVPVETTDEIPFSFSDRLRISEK

A word on the IC50: it is the midpoint of a concentration-inhibition curve. As for `Cl.N/C(=N\S(=O)(=O)c1ccccc1)NCc1cnc(-c2ccc(Cl)cc2)c(-c2ccc(Cl)cc2)c1` [Compound of Example 2, N-(amino(((5,6-bis(4-chlorophenyl)pyridin-3-yl)methyl)amino)methylene)benzenesulfonamide Hydrochloride], the IC50 came to 0.27 µM.
